Columns and labels:
[1] = system: Collagen-Induced Platelet Aggregation; test: Collagen-induced platelet aggregation after oral dosing of rats (platelet rich plasma 2 h after dose); type: in vivo, rat
Experimental: The procedure used is essentially that as described by Born, J. of Phys. […] Rats were orally administered test drugs and after two hours the rats were bled and platelet rich plasma obtained. Collagen was added to the platelet rich plasma to induce platelet aggregation and comparisons were made between control and treated samples.

[2] = system: Evans Blue-Carrageenan Pleural Effusion; test: Modification of the Evans Blue-Carrageenan Pleural Effusion Assay (anti-inflammatory activity); type: in vivo; settings: relative to 4-amino-3-benzoylphenylacetic acid; method of Sancilio
Experimental: The prior art (South African Patent 68/4682) discloses 4-amino-3-benzoylphenylacetic acid, m.p. 135°-7° C. The compound was prepared and tested for anti-inflammatory activity by the method of Sancilio referred to immediately hereinabove.

[3] = system: collagen-induced platelet aggregation in rabbit plasma; test: Inhibition of collagen-induced platelet aggregation in rabbit plasma; type: cell-based; settings: Table III
Text: ^1 Concentration required to inhibit aggregation by 50%.

[4] = system: Adenosine Diphosphate-Induced Platelet Aggregation-Rabbit Plasma; test: In vitro inhibition of adenosine diphosphate-induced platelet aggregation in rabbit plasma; type: cell-based; settings: Table IV, ADP
Text: Effects on Adenosine Diphosphate-Induced
Platelet Aggregation-Rabbit Plasma

[5] = Table IV comment
[6] = Table I, 10.00 mg/kg PO, rats, collagen
[7] = Table I, 100.00 mg/kg PO, rats, collagen
[8] = Table I, 31.60 mg/kg PO, rats, collagen
[9] = Oryctolagus cuniculus, Platelet, 1.0 mM, read-out: Percent Inhibition

CCOC(=O)Cc1cccc(C(=O)c2ccccc2)c1N [Example 9, Ethyl 2-amino-3-benzoylphenylacetate]
Percent Reduction in Aggregation [1, 6]: -49% | Percent Reduction in Aggregation [1, 7]: -75%

Nc1cccc(C(=O)c2ccccc2)c1CC(=O)O [2-amino-6-benzoylphenylacetic acid]
Anti-inflammatory activity, times the activity of the prior art 4-amino-3-benzoylphenylacetic acid [2]: ~3 times

COc1ccc(C(=O)c2cccc(CC(=O)O)c2N)cc1 [Example 24, 2-Amino-3-(4-methoxybenzoyl)phenylacetic Acid]
Percent Reduction in Aggregation ([1]; Table I, 0.00063 mg/kg PO, rats, collagen): -73% | Percent Reduction in Aggregation ([1]; Table I, 4.00 mg/kg PO, rats, collagen): -88% | Percent Reduction in Aggregation ([1]; Table I, 25.00 mg/kg PO, rats, collagen): -71% | Percent Reduction in Aggregation [1, 7]: -81%

O=C(O)c1ccccc1Nc1cccc(C(F)(F)F)c1 [Flufenamic Acid]
Estimated IC50 (concentration required to inhibit aggregation by 50%) [3]: 2 µM

CC(C(=O)[O-])c1cccc(C(=O)c2ccccc2)c1N.O.[Na+] (stereo not drawn) [Example 15, Sodium 2-amino-3-benzoyl-α-methylphenylacetate Hydrate]
Percent Reduction in Aggregation ([1]; Table I, 3.00 mg/kg PO, rats, collagen): -56% | Percent Reduction in Aggregation [1, 8]: -48% | Percent Reduction in Aggregation [1, 7]: -76%

Nc1c(CC(=O)O)cccc1C(=O)c1ccccc1 [Example 27, Sodium 2-Amino-3-benzoylphenylacetate Hydrate]
Percent Reduction in Aggregation ([1]; Table I, 0.00032 mg/kg PO, rats, collagen): -76% | Percent Reduction in Aggregation ([1]; Table I, 1.30 mg/kg PO, rats, collagen): -44% | Percent Reduction in Aggregation ([1]; Table I, 5.10 mg/kg PO, rats, collagen): -68% | Percent Reduction in Aggregation [1, 7]: -77%

Nc1c(CC(=O)[O-])cccc1C(=O)c1ccccc1.[Na+] [sodium 2-amino-3-benzoylphenylacetate]
Anti-inflammatory activity, times the activity of the prior art 4-amino-3-benzoylphenylacetic acid [2]: ~48 times

CC(=O)Oc1ccccc1C(=O)O [Acetylsalicylic Acid, reference compound]
Percent Reduction in Aggregation ([1]; Table II, 316.0 mg/kg PO, 2 rats): -74% | Estimated IC50 (concentration required to inhibit aggregation by 50%) [3]: 23 µM

CCCCC1C(=O)N(c2ccccc2)N(c2ccccc2)C1=O [Phenylbutazone]
Percent Reduction in Aggregation ([1]; Table II, 50.0 mg/kg PO, 2 rats): -74% | Estimated IC50 (concentration required to inhibit aggregation by 50%) [3]: 150 µM | inhibition at 400 µM ([4]; Oryctolagus cuniculus, Platelet, 0.4 mM, read-out: Percent Inhibition): 3% | inhibition at 800 µM ([4]; Oryctolagus cuniculus, Platelet, 0.8 mM, read-out: Percent Inhibition): 2%

Nc1c(CC(=O)O)cccc1C(=O)c1ccccc1 [Example 8, Sodium 2-amino-3-benzoylphenylacetate Dihydrate]
Percent Reduction in Aggregation ([1]; Table I, 8.00 mg/kg PO, rats, collagen): -63% | Percent Reduction in Aggregation ([1]; Table II, 8.0 mg/kg PO, 3 rats): -63% | Estimated IC50 (concentration required to inhibit aggregation by 50%) [3]: 0.2 µM | Estimated IC50 (concentration required to inhibit aggregation by 50%), value in parentheses [3]: 0.2 µM | inhibition at 100 µM ([4]; Oryctolagus cuniculus, Platelet, 0.1 mM, read-out: Percent Inhibition): 4% | inhibition at 1000 µM [4, 9]: 8% | inhibition at 10000 µM ([4]; Oryctolagus cuniculus, Platelet, 10.0 mM, read-out: Percent Inhibition): 82% | Estimated IC50 (Comment) [4]: 4000 µM

Nc1ncnc2c1ncn2[C@@H]1O[C@H](CO)[C@@H](O)[C@H]1O [Adenosine]
inhibition at 1000 µM [4, 9]: 84%

Nc1c(CC(=O)O)cccc1C(=O)c1ccccc1 [Example 16, Potassium 2-amino-3-benzoylphenylacetate Hydrate]
Percent Reduction in Aggregation ([1]; Table I, 0.20 mg/kg PO, rats, collagen, Hydrate, 0.2 mg/kg): -56%

Nc1c(CC(=O)O)cccc1C(=O)c1ccc(Cl)cc1 [Example 14, Sodium 2-amino-3-(4-chlorobenzoyl)phenylacetate Hydrate]
Percent Reduction in Aggregation [1, 8]: -27% | Percent Reduction in Aggregation [1, 7]: -65%

Nc1c(CC(=O)O)cccc1C(=O)c1ccccc1 [Example 3, 2-Amino-3-benzoylphenylacetic Acid]
Anti-inflammatory activity, times the activity of the prior art 4-amino-3-benzoylphenylacetic acid [2]: about 39 times

CN(C)c1c(CC(=O)O)cccc1C(=O)c1ccccc1 [Example 12, 2-Dimethylamino-3-benzoylphenylacetic Acid]
Percent Reduction in Aggregation [1, 8]: -56%

O=C(O)c1ccccc1O [Salicyclic Acid]
Percent Inhibition ([4]; 0.05 mM): 7% | Percent Inhibition ([4]; 0.50 mM): 7% | Percent Inhibition ([4]; 1.0 mM): 12% | Percent Inhibition ([4]; 10.0 mM): 20% | Comment: solubility precludes higher testing [5]: precludes higher

Nc1c(CC(=O)O)cc(Cl)cc1C(=O)c1ccccc1 [Example 6, 2-Amino-3-benzoyl-5-chlorophenylacetic Acid Hemihydrate]
Percent Reduction in Aggregation [1, 6]: -36% | Percent Reduction in Aggregation [1, 7]: -76%

Nc1c(CC(=O)O)cccc1C(=O)c1ccccc1 [Example 25, Magnesium 2-amino-3-benzoylphenylacetate Trihydrate]
Percent Reduction in Aggregation ([1]; Table I, 0.20 mg/kg PO, rats, collagen, Trihydrate, 0.2 mg/kg): -25%

Reference: patent US4182774A, “Method of inhibiting blood platelet aggregation with 2-amino-3-(5- and 6-)benzoylphenylacetic acids, esters and metal salts thereof” (A. H. Robins Company, Incorporated, priority 1978, dated 1980)
